From publication PMC6277767, “Broad and Region-Specific Impacts of the Synthetic Cannabinoid CP 55,940 in Adolescent and Adult Female Mouse Brains” (Frontiers in Molecular Neuroscience, 2018)

Test system: CD1 female mouse brain lipidome
Experiment: Brain-region lipid levels (HPLC/MS/MS lipidomics) 2 h after single i.p. 3 mg/kg CP 55,940 vs vehicle
Type: in vivo
Description: The Bloomington Institutional Animal Care and Use Committee of Indiana University reviewed and approved the animal procedures. Female mice from the CD1 strain were utilized to match our study examining THC’s effects on the brain lipidome ([Leishman et al., 2018]). Mice were given a single i.p. injection of either 3 mg/kg CP or 1:1:18 cremophor:ethanol:saline vehicle (please refer to the section “3 mg/kg CP Is Relevant for Synthetic Cannabinoid Abuse and Has Stronger Effects on the Female Mouse Brain Lipidome During Adolescence” for a justification of dose and use of female mice). Three different age groups were given injections: PND 35 and PND 50 adolescents, and adult mice (PND 113). At least eight mice in each age group received CP and at least eight received vehicle. Matching the THC study time course ([Leishman et al., 2018]), mice were sacrificed via rapid decapitation 2 h after injection. Brains were immediately removed and flash-frozen in liquid nitrogen, and then stored at -80°C until dissections were performed. Brains were dissected on an ice-cold dissection plate into the following regions: STR, HIPP, CER, THAL, CTX, HYP, MID, and STEM. These abbreviations for these brain areas will be used exclusively when discussing the results generated by these specific dissections. Each dissected area was immediately placed in liquid nitrogen and then stored at -80°C until used for lipid extraction.
Tissue extracts were performed as previously described ([Bradshaw et al., 2006]; [Stuart et al., 2013]; [Raboune et al., 2014]; [Leishman et al., 2016a],[b], [2017], [2018]). First, samples were shock frozen in liquid nitrogen, weighed, and transferred to a centrifuge tube. The mass of the largest sample was multiplied by 50 to determine how many milliliters of HPLC-grade methanol (Fisher, Fair Lawn, NJ, United States) to add. Then, samples were spiked with 500 pmol deuterium-labeled NAGly (d8NAGly; Cayman Chemical, Ann Arbor, MI, United States). Samples were placed on ice in darkness for 2 h then individually homogenized and centrifuged at 19,000 × g for 20 min at 20°C. Supernatants were diluted with HPLC water (purified in house) to make a solution of 75% water, 25% supernatant. Lipids were partially purified on C18 solid phase extraction columns (Agilent, Palo Alto, CA, United States). A series of four elutions with 1.5 mL of 60%, 75%, 85%, and 100% methanol were collected ([Stuart et al., 2013]; [Leishman et al., 2016a],[b], [2018]).
As previously described ([Bradshaw et al., 2006]; [Tan et al., 2006]; [Smoum et al., 2010]; [Stuart et al., 2013]; [Tortoriello et al., 2013]; [Raboune et al., 2014]; [Leishman et al., 2016a],[b], [2017], [2018]), samples were analyzed using an Applied Biosystems API 3000 triple quadrupole mass spectrometer with electrospray ionization (Foster City, CA, United States). Using an Agilent XDB-C18 reversed phase analytical column and optimized mobile phase gradients, 20 μL from each elution were chromatographed. Two Shimadzu 10ADvp pumps (Columbia, MD, United States) provided the pressure for gradient elution. Mobile phase A: 20% methanol, 80% water (v/v) and 1 mM ammonium acetate (Sigma, St. Louis, MO, United States). Mobile phase B: 100% methanol, 1 mM ammonium acetate. Every method run began with 0% mobile phase B, reached 100% mobile phase B flowing at 0.2 mL/min, and gradually returned to 0% mobile phase B.
This screening library will be referred to as the lipidome when discussing data from this study. HPLC/MS/MS data were analyzed using Analyst software (Applied Biosystems) ([Bradshaw et al., 2006]; [Tan et al., 2006]; [Stuart et al., 2013]; [Tortoriello et al., 2013]; [Raboune et al., 2014]; [Leishman et al., 2016a],[b], [2017], [2018]). Chromatograms (Supplementary Figure 3) were generated by determining the retention time of analytes from the analytical column with a [M-1] or [M+1] parent peak and a fragmentation peak corresponding to the programmed values. […]

CCCCCCC(C)(C)c1ccc([C@@H]2C[C@H](O)CC[C@H]2CCCO)c(O)c1 [CP 55,940]
PGF2α level vs vehicle (PND 35 HIPP): ↑ (1-1.49 times higher than vehicle) | number of lipids changed (PND 35 HIPP, 65 detected): 39 | 2-arachidonoyl glycerol level vs vehicle (PND 35 HYP): ↓↓↓ (2-2.99 times lower than vehicle) | 2-linoleoyl glycerol level vs vehicle (PND 35 HYP): ↓↓ (1.50-1.99 times lower than vehicle) | 2-oleoyl glycerol level vs vehicle (PND 35 HYP): ↓↓ (1.50-1.99 times lower than vehicle) | 2-palmitoyl glycerol level vs vehicle (PND 35 HYP): ↑ (1-1.49 times higher than vehicle) | Arachidonic acid level vs vehicle (PND 35 HYP): ↓ (1-1.49 times lower than vehicle) | Linoleic acid level vs vehicle (PND 35 HYP): ↓ (1-1.49 times lower than vehicle) | N-arachidonoyl GABA level vs vehicle (PND 35 HYP): ↓ (1-1.49 times lower than vehicle) | N-arachidonoyl alanine level vs vehicle (PND 35 HYP): ↓↓ (1.50-1.99 times lower than vehicle) | N-arachidonoyl ethanolamine level vs vehicle (PND 35 HYP): ↓ (1-1.49 times lower than vehicle) | N-arachidonoyl glycine level vs vehicle (PND 35 HYP): ↓ (1-1.49 times lower than vehicle) | N-arachidonoyl phenylalanine level vs vehicle (PND 35 HYP): ↓ (1-1.49 times lower than vehicle) | N-arachidonoyl taurine level vs vehicle (PND 35 HYP): ↓ (1-1.49 times lower than vehicle) | N-docosahexaenoyl GABA level vs vehicle (PND 35 HYP): ↓ (1-1.49 times lower than vehicle) | N-docosahexaenoyl ethanolamine level vs vehicle (PND 35 HYP): ↓↓ (1.50-1.99 times lower than vehicle) | N-linoleoyl alanine level vs vehicle (PND 35 HYP): ↓ (1-1.49 times lower than vehicle) | N-oleoyl GABA level vs vehicle (PND 35 HYP): ↓ (1-1.49 times lower than vehicle) | N-oleoyl alanine level vs vehicle (PND 35 HYP): ↓ (1-1.49 times lower than vehicle) | N-oleoyl ethanolamine level vs vehicle (PND 35 HYP): ↓↓ (1.50-1.99 times lower than vehicle) | N-palmitoyl ethanolamine level vs vehicle (PND 35 HYP): ↓↓ (1.50-1.99 times lower than vehicle) | N-palmitoyl leucine level vs vehicle (PND 35 HYP): ↑ (1-1.49 times higher than vehicle) | N-stearoyl ethanolamine level vs vehicle (PND 35 HYP): ↓ (1-1.49 times lower than vehicle) | Oleic Acid level vs vehicle (PND 35 HYP): ↓ (1-1.49 times lower than vehicle) | PGE2 level vs vehicle (PND 35 HYP): ↓ (1-1.49 times lower than vehicle) | PGF2α level vs vehicle (PND 35 HYP): ↑ (1-1.49 times higher than vehicle) | phosphoLEA level vs vehicle (PND 35 HYP): ↑ (1-1.49 times higher than vehicle) | 2-linoleoyl glycerol level vs vehicle (PND 35 MID): ↓ (1-1.49 times lower than vehicle) | 6-ketoPGF1α level vs vehicle (PND 35 MID): ↓ (1-1.49 times lower than vehicle) | Arachidonic acid level vs vehicle (PND 35 MID): ↓ (1-1.49 times lower than vehicle) | N- stearoyl valine level vs vehicle (PND 35 MID): ↑ (1-1.49 times higher than vehicle) | N-arachidonoyl GABA level vs vehicle (PND 35 MID): ↓ (1-1.49 times lower than vehicle) | N-arachidonoyl alanine level vs vehicle (PND 35 MID): ↓ (1-1.49 times lower than vehicle) | N-arachidonoyl glycine level vs vehicle (PND 35 MID): ↓ (1-1.49 times lower than vehicle) | N-arachidonoyl serine level vs vehicle (PND 35 MID): ↓ (1-1.49 times lower than vehicle) | N-arachidonoyl taurine level vs vehicle (PND 35 MID): ↓ (1-1.49 times lower than vehicle) | N-arachidonoyl tyrosine level vs vehicle (PND 35 MID): ↓ (1-1.49 times lower than vehicle) | N-docosahexaenoyl GABA level vs vehicle (PND 35 MID): ↓ (1-1.49 times lower than vehicle) | N-docosahexaenoyl alanine level vs vehicle (PND 35 MID): ↓ (1-1.49 times lower than vehicle) | N-docosahexaenoyl glycine level vs vehicle (PND 35 MID): ↓ (1-1.49 times lower than vehicle) | N-docosahexaenoyl leucine level vs vehicle (PND 35 MID): ↑ (1-1.49 times higher than vehicle) | N-docosahexaenoyl methionine level vs vehicle (PND 35 MID): ↓ (1-1.49 times lower than vehicle) | N-docosahexaenoyl serine level vs vehicle (PND 35 MID): ↓ (1-1.49 times lower than vehicle) | N-docosahexaenoyl tyrosine level vs vehicle (PND 35 MID): ↓ (1-1.49 times lower than vehicle) | N-docosahexaenoyl valine level vs vehicle (PND 35 MID): ↑↑ (1.50-1.99 times higher than vehicle) | N-linoleoyl ethanolamine level vs vehicle (PND 35 MID): ↑ (1-1.49 times higher than vehicle) | N-oleoyl GABA level vs vehicle (PND 35 MID): ↓ (1-1.49 times lower than vehicle) | N-oleoyl ethanolamine level vs vehicle (PND 35 MID): ↓ (1-1.49 times lower than vehicle) | N-oleoyl phenylalanine level vs vehicle (PND 35 MID): ↑ (1-1.49 times higher than vehicle) | N-oleoyl valine level vs vehicle (PND 35 MID): ↑ (1-1.49 times higher than vehicle) | N-palmitoyl leucine level vs vehicle (PND 35 MID): ↑ (1-1.49 times higher than vehicle) | N-palmitoyl phenylalanine level vs vehicle (PND 35 MID): ↑ (1-1.49 times higher than vehicle) | N-palmitoyl valine level vs vehicle (PND 35 MID): ↑↑ (1.50-1.99 times higher than vehicle) | N-stearoyl methionine level vs vehicle (PND 35 MID): ↑ (1-1.49 times higher than vehicle) | N-stearoyl tyrosine level vs vehicle (PND 35 MID): ↓ (1-1.49 times lower than vehicle) | PGE2 level vs vehicle (PND 35 MID): ↑ (1-1.49 times higher than vehicle) | PGF2α level vs vehicle (PND 35 MID): ↑ (1-1.49 times higher than vehicle) | phosphoLEA level vs vehicle (PND 35 MID): ↑ (1-1.49 times higher than vehicle) | 2-arachidonoyl glycerol level vs vehicle (PND 35 STEM): ↓ (1-1.49 times lower than vehicle) | 2-linoleoyl glycerol level vs vehicle (PND 35 STEM): ↓ (1-1.49 times lower than vehicle) | N- stearoyl valine level vs vehicle (PND 35 STEM): ↑ (1-1.49 times higher than vehicle) | N-arachidonoyl GABA level vs vehicle (PND 35 STEM): ↓ (1-1.49 times lower than vehicle) | N-arachidonoyl taurine level vs vehicle (PND 35 STEM): ↓ (1-1.49 times lower than vehicle) | N-docosahexaenoyl leucine level vs vehicle (PND 35 STEM): ↑ (1-1.49 times higher than vehicle) | N-docosahexaenoyl valine level vs vehicle (PND 35 STEM): ↑ (1-1.49 times higher than vehicle) | N-oleoyl leucine level vs vehicle (PND 35 STEM): ↑ (1-1.49 times higher than vehicle) | N-oleoyl proline level vs vehicle (PND 35 STEM): ↑ (1-1.49 times higher than vehicle) | N-oleoyl valine level vs vehicle (PND 35 STEM): ↑ (1-1.49 times higher than vehicle) | N-palmitoyl leucine level vs vehicle (PND 35 STEM): ↑ (1-1.49 times higher than vehicle) | N-palmitoyl phenylalanine level vs vehicle (PND 35 STEM): ↑ (1-1.49 times higher than vehicle) | N-palmitoyl proline level vs vehicle (PND 35 STEM): ↑ (1-1.49 times higher than vehicle) | N-palmitoyl tryptophan level vs vehicle (PND 35 STEM): ↓ (1-1.49 times lower than vehicle) | N-palmitoyl valine level vs vehicle (PND 35 STEM): ↑ (1-1.49 times higher than vehicle) | PGE2 level vs vehicle (PND 35 STEM): ↑ (1-1.49 times higher than vehicle) | number of lipids changed (PND 35 STEM, 70 detected): 16 | 2-arachidonoyl glycerol level vs vehicle (PND 35 STR): ↓ (1-1.49 times lower than vehicle) | 2-linoleoyl glycerol level vs vehicle (PND 35 STR): ↓↓ (1.50-1.99 times lower than vehicle) | 2-oleoyl glycerol level vs vehicle (PND 35 STR): ↓ (1-1.49 times lower than vehicle) | N- stearoyl valine level vs vehicle (PND 35 STR): ↑ (1-1.49 times higher than vehicle) | N-arachidonoyl GABA level vs vehicle (PND 35 STR): ↓↓ (1.50-1.99 times lower than vehicle) | N-arachidonoyl alanine level vs vehicle (PND 35 STR): ↓ (1-1.49 times lower than vehicle) | N-arachidonoyl glycine level vs vehicle (PND 35 STR): ↓ (1-1.49 times lower than vehicle) | N-arachidonoyl phenylalanine level vs vehicle (PND 35 STR): ↓ (1-1.49 times lower than vehicle) | N-arachidonoyl serine level vs vehicle (PND 35 STR): ↓↓ (1.50-1.99 times lower than vehicle) | N-arachidonoyl taurine level vs vehicle (PND 35 STR): ↓ (1-1.49 times lower than vehicle) | N-arachidonoyl tyrosine level vs vehicle (PND 35 STR): ↓ (1-1.49 times lower than vehicle) | N-docosahexaenoyl GABA level vs vehicle (PND 35 STR): ↓ (1-1.49 times lower than vehicle) | N-docosahexaenoyl alanine level vs vehicle (PND 35 STR): ↓ (1-1.49 times lower than vehicle) | N-docosahexaenoyl ethanolamine level vs vehicle (PND 35 STR): ↓ (1-1.49 times lower than vehicle) | N-docosahexaenoyl leucine level vs vehicle (PND 35 STR): ↑ (1-1.49 times higher than vehicle) | N-docosahexaenoyl serine level vs vehicle (PND 35 STR): ↓ (1-1.49 times lower than vehicle) | N-oleoyl GABA level vs vehicle (PND 35 STR): ↓ (1-1.49 times lower than vehicle) | N-oleoyl alanine level vs vehicle (PND 35 STR): ↓ (1-1.49 times lower than vehicle) | N-oleoyl ethanolamine level vs vehicle (PND 35 STR): ↓↓ (1.50-1.99 times lower than vehicle) | N-oleoyl glycine level vs vehicle (PND 35 STR): ↓ (1-1.49 times lower than vehicle) | N-palmitoyl ethanolamine level vs vehicle (PND 35 STR): ↓ (1-1.49 times lower than vehicle) | N-palmitoyl leucine level vs vehicle (PND 35 STR): ↑ (1-1.49 times higher than vehicle) | N-palmitoyl valine level vs vehicle (PND 35 STR): ↑↑ (1.50-1.99 times higher than vehicle) | N-stearoyl alanine level vs vehicle (PND 35 STR): ↓ (1-1.49 times lower than vehicle) | N-stearoyl leucine level vs vehicle (PND 35 STR): ↓ (1-1.49 times lower than vehicle) | N-stearoyl serine level vs vehicle (PND 35 STR): ↓ (1-1.49 times lower than vehicle) | PGE2 level vs vehicle (PND 35 STR): ↑ (1-1.49 times higher than vehicle)
